Laboratory results published in patent publication US11083199B2, “Heterocycle derivatives as pesticides” (Bayer Aktiengesellschaft, priority 2017, dated 2021).

Legend:
Type in all cases: in vivo
Spodoptera frugiperda = Spodoptera frugiperda spray test; settings: foliar, 168 h, application rate 100 g/ha, maize leaf discs, caterpillars, after 7 days, read-out: efficacy
Description: (§1) [table] To produce a suitable active ingredient formulation, 1 part by weight of active ingredient is dissolved with the specified parts by weight of solvent and made up to the desired concentration with water containing an emulsifier concentration of 1000 ppm. To produce further test concentrations, the formulation is diluted with emulsifier-containing water. Leaf discs of maize (Zea mays) are sprayed with an active ingredient formulation of the desired concentration and, after drying, populated with caterpillars of the fall armyworm (Spodoptera frugiperda). After 7 days, the efficacy in % is determined. 100% means that all the caterpillars have been killed; 0% means that no caterpillar has been killed.

Phaedon cochleariae = Phaedon cochleariae spray test; settings: 168 h, application rate 100 g/ha, larvae, after 7 days, read-out: efficacy
Description: as §1, with “water. Discs” for “water. Leaf discs”, “of Chinese cabbage leaves (Brassica pekinensis)” for “of maize (Zea mays)”, “with larvae” for “with caterpillars”, “the mustard beetle (Phaedon cochleariae).” for “the fall armyworm (Spodoptera frugiperda).”, “the beetle larvae” for “the caterpillars”, “no beetle larvae have” for “no caterpillar has”

Myzus persicae [1] = assay: Myzus persicae oral test; settings: 120 h, application rate 4 ppm, after 5 days, read-out: efficacy
Description: [table] To produce a suitable active ingredient formulation, 1 part by weight of active ingredient is dissolved with the stated parts by weight of solvent and made up to the desired concentration with water. 50 μl of the active ingredient formulation are transferred into microtitre plates and made up to a final volume of 200 μl with 150 μl of IPL41 insect medium (33%+15% sugar). Subsequently, the plates are sealed with parafilm, which a mixed population of green peach aphids (Myzus persicae) within a second microtitre plate is able to puncture and imbibe the solution. After 5 days, the efficacy in % is determined. 100% means that all the aphids have been killed; 0% means that no aphids have been killed.

Myzus persicae [2] = assay: Myzus persicae spray test; settings: foliar, 120 h, application rate 100 g/ha, Chinese cabbage leaf discs, after 5 days, read-out: efficacy
Description: as §1, with “Discs” for “Leaf discs”, “Chinese cabbage leaves (Brassica pekinensis) infested by all stages of the green peach aphid (Myzus persicae)” for “maize (Zea mays)”, “concentration.” for “concentration and, after drying, populated with caterpillars of the fall armyworm (Spodoptera frugiperda).”, “5” for “7”, “aphids” for “caterpillars”, “aphids have” for “caterpillar has”

## CCS(=O)(=O)c1c(-n2cc3cnc(C(F)(F)F)cc3n2)nc(-c2ccc(Cl)cc2)n1C [Example I-093]
Spodoptera frugiperda
  pest or weed control at 100 g/ha: 100%
Phaedon cochleariae
  pest or weed control at 100 g/ha: 100%
Myzus persicae [1]
  pest or weed control at 4 ppm: 100%

## CCS(=O)(=O)c1c(-c2nc3cc(C(F)(F)F)ncc3n2C)nc(-c2ccc(C(F)(F)F)cc2C)n1C [Example I-078]
Spodoptera frugiperda
  pest or weed control at 100 g/ha: 100%
Phaedon cochleariae
  pest or weed control at 100 g/ha: 100%
Myzus persicae [1]
  pest or weed control at 4 ppm: 90%

## CCS(=O)(=O)c1c(-c2nc3cc(C(F)(F)F)ncc3n2C)nc(C#CC2CC2)n1C [Example I-024]
Spodoptera frugiperda
  pest or weed control at 100 g/ha: 100%
Phaedon cochleariae
  pest or weed control at 100 g/ha: 100%
Myzus persicae [1]
  pest or weed control at 4 ppm: 90%

## CCS(=O)(=O)c1c(-c2nc3cc(C(F)(F)F)ncc3n2C)nc(-n2cc(Cl)cn2)n1C [Example I-027, 2-[2-(4-chloro-1H-pyrazol-1-yl)-5-(ethylsulfonyl)-1-methyl-1H-imidazol-4-yl]-3-methyl-6-(trifluoromethyl)-3H-imidazo[4,5-c]pyridine]
Spodoptera frugiperda
  pest or weed control at 100 g/ha: 100%
Phaedon cochleariae
  pest or weed control at 100 g/ha: 100%
Myzus persicae [1]
  pest or weed control at 4 ppm: 100%
Myzus persicae [2]
  pest or weed control at 100 g/ha: 90%

## CCS(=O)(=O)c1c(-n2cc3cnc(C(F)(F)F)cc3n2)nc(-c2ccc(C(F)(F)F)cc2)n1C [Example I-097]
Spodoptera frugiperda
  pest or weed control at 100 g/ha: 100%
Phaedon cochleariae
  pest or weed control at 100 g/ha: 100%
Myzus persicae [1]
  pest or weed control at 4 ppm: 100%

## CCS(=O)(=O)c1c(-n2cc3ncc(C(F)(F)F)cc3n2)nc(-c2ccc(C(F)(F)F)cc2)n1C [Example I-098, 2-{5-(Ethylsulfonyl)-1-methyl-2-[4-(trifluoromethyl)phenyl]-1H-imidazol-4-yl}-6-(trifluoromethyl)-2H-pyrazolo[4,3-b]pyridine]
Spodoptera frugiperda
  pest or weed control at 100 g/ha: 100%
Phaedon cochleariae
  pest or weed control at 100 g/ha: 100%
Myzus persicae [1]
  pest or weed control at 4 ppm: 100%

## CCS(=O)(=O)c1c(-n2cc3cnc(C(F)(F)F)cc3n2)nc(-c2ccccc2)n1C [Example I-095]
Spodoptera frugiperda
  pest or weed control at 100 g/ha: 100%
Myzus persicae [1]
  pest or weed control at 4 ppm: 100%
Myzus persicae [2]
  pest or weed control at 100 g/ha: 90%

## CCS(=O)(=O)c1c(-c2nc3cc(C(F)(F)F)ncc3n2C)nc(-c2cc(Cl)c(C(F)(F)F)cc2C)n1C [Example I-081]
Spodoptera frugiperda
  pest or weed control at 100 g/ha: 100%
Phaedon cochleariae
  pest or weed control at 100 g/ha: 100%
Myzus persicae [1]
  pest or weed control at 4 ppm: 100%

## CCS(=O)(=O)c1c(-n2cc3ncc(C(F)(F)F)cc3n2)nc(-c2ccc(Cl)cc2)n1C [Example I-094]
Spodoptera frugiperda
  pest or weed control at 100 g/ha: 100%
Phaedon cochleariae
  pest or weed control at 100 g/ha: 83%
Myzus persicae [1]
  pest or weed control at 4 ppm: 100%

## CCS(=O)(=O)c1c(-c2nc3cc(C(F)(F)F)ncc3n2C)nc(-c2ccc(C3(C#N)CC3)cc2)n1C [Example I-069]
Spodoptera frugiperda
  pest or weed control at 100 g/ha: 100%
Phaedon cochleariae
  pest or weed control at 100 g/ha: 100%
Myzus persicae [1]
  pest or weed control at 4 ppm: 100%
Myzus persicae [2]
  pest or weed control at 100 g/ha: 90%

## CCS(=O)(=O)c1c(-n2cc3ncc(C(F)(F)F)cc3n2)nc(-c2ccccc2)n1C [Example I-096]
Spodoptera frugiperda
  pest or weed control at 100 g/ha: 83%
Phaedon cochleariae
  pest or weed control at 100 g/ha: 100%
Myzus persicae [1]
  pest or weed control at 4 ppm: 90%
Myzus persicae [2]
  pest or weed control at 100 g/ha: 90%

## CCS(=O)(=O)c1c(-c2nc3cc(C(F)(F)F)ncc3n2C)nc(-c2ccn(C)n2)n1C [Example I-060]
Spodoptera frugiperda
  pest or weed control at 100 g/ha: 83%
Phaedon cochleariae
  pest or weed control at 100 g/ha: 100%
Myzus persicae [1]
  pest or weed control at 4 ppm: 100%
Myzus persicae [2]
  pest or weed control at 100 g/ha: 100%

## CCS(=O)(=O)c1c(-c2nc3cc(C(F)(F)F)ncc3n2C)nc(-c2ccc(Cl)s2)n1C [Example I-057]
Spodoptera frugiperda
  pest or weed control at 100 g/ha: 67%
Phaedon cochleariae
  pest or weed control at 100 g/ha: 100%
Myzus persicae [1]
  pest or weed control at 4 ppm: 100%
Myzus persicae [2]
  pest or weed control at 100 g/ha: 90%

## CCS(=O)(=O)c1c(-c2nc3cc(C(F)(F)F)nnc3n2C)nc(-c2ccc(Cl)cc2)n1C [Example I-063]
Spodoptera frugiperda
  pest or weed control at 100 g/ha: 100%
Phaedon cochleariae
  pest or weed control at 100 g/ha: 100%
Myzus persicae [1]
  pest or weed control at 4 ppm: 100%
Myzus persicae [2]
  pest or weed control at 100 g/ha: 100%
